Data published in patent publication US20190343908A1, “Therapeutic Combination for the Treatment of Cancer” (Nerium Biotechnology Inc., priority 2011, published 2019).

Tests used:
[1] = tested on: LNCaP prostate cancer cell line; experiment: Methyl-Tetrazolium viability assay, LNCaP; assay type: cell-based, human; conditions: for ABSORBANCE: LNCaP, 0.1 μg/mL cisplatin
Description: The Methyl-Tetrazolium dye assay measures the activity of enzymes in mitochondria. The dye precursor is taken up by cells, where it undergoes reduction to the purple formazan. It measures only the mitochondrial activity and, thus, it is not always a reliable indication of whether the cells themselves are alive or dead, since even a recently dead cell has […] enzyme activity in mitochondria. Intracellular glucose concentration, pH, and time before assay all affect the measurements.
(§1) The Methyl Tetrazolium, Sulforhodamine B, and Crystal Violet assays were used to assess cell viabilities. The incubation times were 24 hours, 48 hours, and 72 hours. The Nerium oleander extract Anvirzel™ (a hot water extract of oleander obtained from Salud Integral, Honduras) was tested in concentrations ranging from 0.01 ng/mL to 10 ng/mL.
(§2) Cells were detached by trypsinization (Trypsin-0.25% EDTA, Invitrogen, 25200-072) during the logarithmic phase of culture growth and plated in 96-well plates (18.000 cells/well) (Corning, Costar 359) in a final volume of 200 μl of medium per well. […] The absorbance was measured after 24 hours, 48 hours, and 72 hours of incubation.
For the Methyl-Tetrazolium assay, the dye (Sigma, M2128; 5 mg/mL, diluted in phosphate-buffered saline) was added to each well and plates were incubated for 3 hours at 37° C. After the end of the incubation period, the medium was discarded and the cells were rinsed with phosphate-buffered saline. Finally, the formazan crystals were dissolved in dimethylsulphoxide (Sigma, D4540).
(§3) The optical density of each plate was measured on a μQuant spectrophotometer and the data were analyzed with Gen5 software (μQuant Biomolecular Spectrophotometer MQX200 and Gen5™ Microplate Data Collection & Analysis software, BioTek® Instruments. Inc, April 2008). Absorbance was measured at 570 nm for all assays and a second wavelength was measured in order to subtract noise. For the Methyl-Tetrazolium assay this second wavelength was 630 nm and for the Sulforhodamine B and Crystal Violet assays it was 690 nm.

[2] = tested on: HCT-116 (colorectal cancer); experiment: Crystal Violet viability assay, HCT-116; assay type: cell-based, human; design: key: absorbance at 570 nm (crystal violet), background wavelength subtracted; conditions: for Average CVE: HCT-116
Description: Three different viability assays were chosen to complement each other and yielded results dependent on concentration and cell line: the Methyl Tetrazolium dye assay, the Sulforhodamine B fluorescent dye assay, and the Crystal Violet dye assay.
The Sulforhodamine B and Crystal Violet assays provide information about protein and were used to complement the Methyl-Tetrazolium dye assay. […] It is used for the quantification of cellular proteins of cultured cells. The assay using Crystal Violet, a dye that binds electrostatically to proteins and stains DNA, provides a reliable, simple assay for measuring viability of cells.
as §1, §2
For the Crystal Violet assay, the medium was removed from the 96-well plates, the plates rinsed with PBS (Sigma, P3813) and then the cells were […] by the addition of 10% formalin (MERCK, 1.04003.2500) for 20 minutes at RT. Formalin was removed and 0.25% aqueous crystal violet (Sigma, HT901), dissolved in water, was added for 10 minutes at RT. Unbound Crystal Violet was rinsed by washing with water and finally 33% acetic acid was added to dissolve the dye.
as §3

With `N.N.[Cl][Pt][Cl]` [cisplatin] the “MTT Average” value ([1]; LNCaP Run 3, 24 h, 0.1 μg/ml CDDP) was 0.11, the “MTT Average” value ([1]; LNCaP Run 3, 24 h, 1 μg/ml CDDP) was 0.008 and the “MTT Average” value ([1]; LNCaP Run 3, 24 h, 10 μg/ml CDDP) was 0.017. For the same compound, the “MTT Average” value ([1]; LNCaP Run 3, 24 h, 100 μg/ml CDDP) was 0.006, the “MTT Average” value ([1]; LNCaP Run 3, 48 h, 0.1 μg/ml CDDP) was 0.157 and the “MTT Average” value ([1]; LNCaP Run 3, 48 h, 1 μg/ml CDDP) was 0.011. The “MTT Average” value ([1]; LNCaP Run 3, 48 h, 10 μg/ml CDDP) was 0.009, the “MTT Average” value ([1]; LNCaP Run 3, 48 h, 100 μg/ml CDDP) was 0.009 and the “MTT Average” value ([1]; LNCaP Run 3, 72 h, 0.1 μg/ml CDDP) was 0.171. The “MTT Average” value ([1]; LNCaP Run 3, 72 h, 1 μg/ml CDDP) was 0.01, the “MTT Average” value ([1]; LNCaP Run 3, 72 h, 10 μg/ml CDDP) was 0.009 and the “MTT Average” value ([1]; LNCaP Run 3, 72 h, 100 μg/ml CDDP) was 0.008. For the same compound, the ABSORBANCE ([1]; 48 h) was 0.161, the ABSORBANCE ([1]; 72 h) was 0.17 and the “Average MTT 24 h” value ([1]; Run 1, 0.1 μg/ml CDDP) was 0.061. The “Average MTT 48 h” value ([1]; Run 1, 0.1 μg/ml CDDP) was 0.116, the “Average MTT 24 h” value ([1]; Run 1, 1 μg/ml CDDP) was 0.012 and the “Average MTT 48 h” value ([1]; Run 1, 1 μg/ml CDDP) was 0.015. The “Average MTT 72 h” value ([1]; Run 1, 1 μg/ml CDDP) was 0.016, the “Average MTT 24 h” value ([1]; Run 1, 10 μg/ml CDDP) was 0.02 and the “Average MTT 48 h” value ([1]; Run 1, 10 μg/ml CDDP) was 0.011. For the same compound, the “Average MTT 72 h” value ([1]; Run 1, 10 μg/ml CDDP) was 0.01, the “Average MTT 24 h” value ([1]; Run 1, 100 μg/ml CDDP) was 0.011 and the “Average MTT 48 h” value ([1]; Run 1, 100 μg/ml CDDP) was 0.017. For the same compound, the “Average MTT 72 h” value ([1]; Run 1, 100 μg/ml CDDP) was 0.01, the “Average MTT 24 h” value ([1]; Run 2, 0.1 μg/ml CDDP) was 0.136 and the “Average MTT 48 h” value ([1]; Run 2, 0.1 μg/ml CDDP) was 0.161. The “Average MTT 72 h” value ([1]; Run 2, 0.1 μg/ml CDDP) was 0.17, the “Average MTT 24 h” value ([1]; Run 2, 1 μg/ml CDDP) was 0.01 and the “Average MTT 48 h” value ([1]; Run 2, 1 μg/ml CDDP) was 0.016. For the same compound, the “Average MTT 72 h” value ([1]; Run 2, 1 μg/ml CDDP) was 0.026, the “Average MTT 24 h” value ([1]; Run 2, 10 μg/ml CDDP) was 0.014 and the “Average MTT 48 h” value ([1]; Run 2, 10 μg/ml CDDP) was 0.015. The “Average MTT 72 h” value ([1]; Run 2, 10 μg/ml CDDP) was 0.012, the “Average MTT 24 h” value ([1]; Run 2, 100 μg/ml CDDP) was 0.017 and the “Average MTT 48 h” value ([1]; Run 2, 100 μg/ml CDDP) was 0.015. For the same compound, the “Average MTT 72 h” value ([1]; Run 2, 100 μg/ml CDDP) was 0.012, the “CVE Average” value ([2]; HCT-116, Run 3, 24 h, 0.1 μg/ml CDDP) was 0.371 and the “CVE Average” value ([2]; HCT-116, Run 3, 24 h, 1 μg/ml CDDP) was 0.267. The “CVE Average” value ([2]; HCT-116, Run 3, 24 h, 10 μg/ml CDDP) was 0.393, the “CVE Average” value ([2]; HCT-116, Run 3, 24 h, 100 μg/ml CDDP) was 0.256 and the “CVE Average” value ([2]; HCT-116, Run 3, 48 h, 0.1 μg/ml CDDP) was 1.153. The “CVE Average” value ([2]; HCT-116, Run 3, 48 h, 1 μg/ml CDDP) was 0.687, the “CVE Average” value ([2]; HCT-116, Run 3, 48 h, 10 μg/ml CDDP) was 0.993 and the “CVE Average” value ([2]; HCT-116, Run 3, 48 h, 100 μg/ml CDDP) was 0.359. The “CVE Average” value ([2]; HCT-116, Run 3, 72 h, 0.1 μg/ml CDDP) was 1.078, the “CVE Average” value ([2]; HCT-116, Run 3, 72 h, 1 μg/ml CDDP) was 0.235 and the “CVE Average” value ([2]; HCT-116, Run 3, 72 h, 10 μg/ml CDDP) was 0.476. The “CVE Average” value ([2]; HCT-116, Run 3, 72 h, 100 μg/ml CDDP) was 0.214, the “Average CVE” value ([2]; Run 1, 24 h, 0.1 μg/ml CDDP) was 0.569 and the “Average CVE” value ([2]; Run 1, 24 h, 1 μg/ml CDDP) was 0.563. The “Average CVE” value ([2]; Run 1, 24 h, 10 μg/ml CDDP) was 1.173, the “Average CVE” value ([2]; Run 1, 24 h, 100 μg/ml CDDP) was 0.344 and the “Average CVE” value ([2]; Run 1, 48 h, 0.1 μg/ml CDDP) was 0.984. The “Average CVE” value ([2]; Run 1, 48 h, 1 μg/ml CDDP) was 0.624, the “Average CVE” value ([2]; Run 1, 48 h, 10 μg/ml CDDP) was 0.488 and the “Average CVE” value ([2]; Run 1, 48 h, 100 μg/ml CDDP) was 0.356. For the same compound, the “Average CVE” value ([2]; Run 1, 72 h, 0.1 μg/ml CDDP) was 1.352, the “Average CVE” value ([2]; Run 1, 72 h, 1 μg/ml CDDP) was 0.308 and the “Average CVE” value ([2]; Run 1, 72 h, 10 μg/ml CDDP) was 0.501. The “Average CVE” value ([2]; Run 1, 72 h, 100 μg/ml CDDP) was 0.51, the “Average CVE” value ([2]; Run 2, 24 h, 0.1 μg/ml CDDP) was 0.52 and the “Average CVE” value ([2]; Run 2, 24 h, 1 μg/ml CDDP) was 0.302. For the same compound, the “Average CVE” value ([2]; Run 2, 24 h, 10 μg/ml CDDP) was 0.477, the “Average CVE” value ([2]; Run 2, 24 h, 100 μg/ml CDDP) was 0.303 and the “Average CVE” value ([2]; Run 2, 48 h, 0.1 μg/ml CDDP) was 0.971. For the same compound, the “Average CVE” value ([2]; Run 2, 48 h, 1 μg/ml CDDP) was 0.425, the “Average CVE” value ([2]; Run 2, 48 h, 10 μg/ml CDDP) was 0.608 and the “Average CVE” value ([2]; Run 2, 48 h, 100 μg/ml CDDP) was 0.529. The “Average CVE” value ([2]; Run 2, 72 h, 0.1 μg/ml CDDP) was 1.187, the “Average CVE” value ([2]; Run 2, 72 h, 1 μg/ml CDDP) was 0.551 and the “Average CVE” value ([2]; Run 2, 72 h, 10 μg/ml CDDP) was 0.435. For the same compound, the “Average CVE” value ([2]; Run 2, 72 h, 100 μg/ml CDDP) was 0.492.
